Laboratory results as given in US12173313B2, “Assembly of functionally integrated human forebrain spheroids and methods of use thereof” (The Board of Trustees of the Leland Stanford Junior …, priority 2017, dated 2024).

Key:
[1] = system: Dlxi1/2b::eGFP+ cells in fused hSS-hCS; assay: Live imaging of interneuron migration in fused hSS-hCS (control); format: cell-based, human; conditions: 100 nM, before vs after exposure
Method: Live imaging and analysis of Dlxi1/2b::eGFP+ cell migration. The migration of Dlxi1/2b::eGFP+ cells was imaged for 8-12 hrs under environmentally controlled conditions (37° C., 5% CO2) in intact, fused hSS-hCS using a confocal microscope with a motorized stage (Leica SP8). Fused hSS-hCS were transferred to a well of a 96-well plate (glass-bottom plates, Corning) in 200 μl of NM. Spheroids were incubated in the environmentally controlled chamber for 30-60 min prior to imaging. During a given recording session, up to 8 fused hSS-hCS were imaged at a depth of 50-150 μm depth and a rate of 15-20 min/frame. For pharmacological manipulation, cells were imaged for 12 hrs to record a baseline. Then, the media was carefully removed and new media with small molecules (AMD3100 at 100 nM; nimodipine at 5 μM; or roscovitine at 15 μM) was gently added to the well. The field of view was readjusted to capture the previous region of interest and cells in fused hSS-hCS were imaged for an additional 12 hrs. For imaging of Dlxi1/2b::eGFP+ cells, E17-E18 slices were placed on inserts and infected with Dlxi1/2b::eGFP lentivirus after 24 hrs. The slices were imaged 2 days later using a Leica SP8 confocal microscope (see above). For measuring the branch to soma length ratio of human cells on mouse slices, hSSs infected with Dlxi1/2b::eGFP lentivirus were dissociated and placed on top of E13-14 mouse slices, which were placed on cell culture inserts 8-24 hrs before. The hSS-derived Dlxi1/2b::eGFP+ cells were imaged with the Leica SP8 confocal microscope system at least 48 hrs later. The migration of mouse Dlxi1/2b::eGFP+ cells or Cav1.2-electroporated cells and the migration of human fetal Dlxi1/2b::eG FP-infected cells both imaged using the same setting as described for intact, fused hSS-hCS. Slices were kept on the cell culture inserts during imaging. For quantification of migration of Dlxi1/2b::eGFP+ cells after plating on coverslips, intact hSS were plated on Poly-ornithine/laminin (Sigma) coated glass coverslips (15 mm; Werner). Cells were imaged 7-10 days after using a confocal microscope (Leica SP8) as described above. ImageJ and the Chemotaxis & Migration Tool (Ibidi) were used for the post-acquisition analysis of cell mobility. The StackReg plugin in ImageJ was used to correct for minor drifts during imaging. To estimate the length of individual saltations, Dlxi1/2b::eGFP cells displaying a swelling of the soma were identified, and distance (in μm) to the new position of the soma following nucleokinesis was recorded manually. The time necessary for this movement was used to calculate the speed when mobile. […] Path directness was calculated as the E/A ratio. […]

[2] = target: element-binding protein (CBP) (Homo sapiens, UniProt Q92793); conditions: cited from earlier work
Sequence of element-binding protein (CBP) (Q92793 whole entry): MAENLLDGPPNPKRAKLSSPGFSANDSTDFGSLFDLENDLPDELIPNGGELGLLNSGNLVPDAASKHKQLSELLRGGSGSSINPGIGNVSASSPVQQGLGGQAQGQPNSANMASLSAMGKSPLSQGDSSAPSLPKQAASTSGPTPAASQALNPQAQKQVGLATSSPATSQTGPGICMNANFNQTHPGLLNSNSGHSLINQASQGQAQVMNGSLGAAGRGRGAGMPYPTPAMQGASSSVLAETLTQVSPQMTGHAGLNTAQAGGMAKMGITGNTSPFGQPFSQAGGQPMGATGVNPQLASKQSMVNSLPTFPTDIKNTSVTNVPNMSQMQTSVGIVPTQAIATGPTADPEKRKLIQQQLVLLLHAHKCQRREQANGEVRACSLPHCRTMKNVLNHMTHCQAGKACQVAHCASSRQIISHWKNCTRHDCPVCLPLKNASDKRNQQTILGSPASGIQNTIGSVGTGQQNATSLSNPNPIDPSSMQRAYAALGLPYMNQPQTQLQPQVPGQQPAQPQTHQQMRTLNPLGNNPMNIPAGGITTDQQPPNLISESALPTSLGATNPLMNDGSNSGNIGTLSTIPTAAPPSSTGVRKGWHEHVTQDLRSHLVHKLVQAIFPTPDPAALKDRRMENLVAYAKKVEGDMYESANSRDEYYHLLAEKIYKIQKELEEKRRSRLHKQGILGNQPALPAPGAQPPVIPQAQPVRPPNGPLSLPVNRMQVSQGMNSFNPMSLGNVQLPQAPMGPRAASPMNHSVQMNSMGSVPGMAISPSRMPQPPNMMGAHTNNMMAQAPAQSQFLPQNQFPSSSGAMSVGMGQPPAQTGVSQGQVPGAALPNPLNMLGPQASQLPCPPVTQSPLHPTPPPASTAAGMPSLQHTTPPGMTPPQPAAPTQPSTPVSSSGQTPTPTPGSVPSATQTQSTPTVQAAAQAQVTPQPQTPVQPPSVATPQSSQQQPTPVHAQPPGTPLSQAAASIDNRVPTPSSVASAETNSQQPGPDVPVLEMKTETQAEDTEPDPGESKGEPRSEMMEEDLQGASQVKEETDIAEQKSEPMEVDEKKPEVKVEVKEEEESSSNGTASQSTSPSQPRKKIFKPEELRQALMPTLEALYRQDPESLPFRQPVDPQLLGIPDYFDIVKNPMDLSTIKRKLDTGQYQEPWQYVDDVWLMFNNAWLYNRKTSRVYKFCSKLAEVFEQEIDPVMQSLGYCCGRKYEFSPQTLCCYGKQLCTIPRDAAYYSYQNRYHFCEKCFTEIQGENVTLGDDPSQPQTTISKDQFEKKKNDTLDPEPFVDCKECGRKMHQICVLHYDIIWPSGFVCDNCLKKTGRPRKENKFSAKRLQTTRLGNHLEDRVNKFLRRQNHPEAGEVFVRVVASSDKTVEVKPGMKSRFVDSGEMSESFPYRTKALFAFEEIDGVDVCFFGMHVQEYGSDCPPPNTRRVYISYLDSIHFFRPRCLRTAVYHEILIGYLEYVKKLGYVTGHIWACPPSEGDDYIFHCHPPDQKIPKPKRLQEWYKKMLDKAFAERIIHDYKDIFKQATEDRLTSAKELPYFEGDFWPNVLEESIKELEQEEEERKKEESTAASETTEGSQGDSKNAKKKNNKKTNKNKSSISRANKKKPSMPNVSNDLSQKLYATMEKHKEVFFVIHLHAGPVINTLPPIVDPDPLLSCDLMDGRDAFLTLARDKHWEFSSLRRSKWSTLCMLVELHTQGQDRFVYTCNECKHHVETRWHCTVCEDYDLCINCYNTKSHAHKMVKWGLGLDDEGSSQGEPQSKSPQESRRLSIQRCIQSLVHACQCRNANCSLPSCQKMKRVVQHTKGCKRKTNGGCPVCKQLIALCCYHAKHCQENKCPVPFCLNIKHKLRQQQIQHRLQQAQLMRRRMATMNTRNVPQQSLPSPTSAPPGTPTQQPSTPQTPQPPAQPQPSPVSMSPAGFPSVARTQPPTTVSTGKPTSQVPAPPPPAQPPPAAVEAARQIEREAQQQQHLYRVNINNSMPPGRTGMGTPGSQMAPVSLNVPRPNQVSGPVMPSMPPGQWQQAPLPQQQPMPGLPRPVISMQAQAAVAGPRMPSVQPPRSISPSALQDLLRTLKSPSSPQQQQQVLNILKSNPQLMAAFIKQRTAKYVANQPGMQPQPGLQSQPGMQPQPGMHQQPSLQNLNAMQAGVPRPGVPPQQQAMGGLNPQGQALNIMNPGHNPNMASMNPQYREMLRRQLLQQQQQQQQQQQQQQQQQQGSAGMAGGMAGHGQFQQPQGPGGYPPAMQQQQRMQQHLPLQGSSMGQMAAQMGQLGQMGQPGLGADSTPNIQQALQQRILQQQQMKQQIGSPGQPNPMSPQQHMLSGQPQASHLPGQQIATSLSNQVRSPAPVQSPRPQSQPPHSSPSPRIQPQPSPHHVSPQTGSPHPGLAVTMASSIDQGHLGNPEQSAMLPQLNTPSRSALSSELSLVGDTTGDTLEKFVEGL

[3] = system: Wnt processing and secretion; conditions: cell-free assay; read-out: IC50, inhibition of Wnt processing and secretion; cited from earlier work
Porcn = target: T1, Porcn (Homo sapiens, UniProt Q9H237); conditions: read-out: EC50, Porcn inhibition; cited from earlier work
T1 sequence (Q9H237 1-461): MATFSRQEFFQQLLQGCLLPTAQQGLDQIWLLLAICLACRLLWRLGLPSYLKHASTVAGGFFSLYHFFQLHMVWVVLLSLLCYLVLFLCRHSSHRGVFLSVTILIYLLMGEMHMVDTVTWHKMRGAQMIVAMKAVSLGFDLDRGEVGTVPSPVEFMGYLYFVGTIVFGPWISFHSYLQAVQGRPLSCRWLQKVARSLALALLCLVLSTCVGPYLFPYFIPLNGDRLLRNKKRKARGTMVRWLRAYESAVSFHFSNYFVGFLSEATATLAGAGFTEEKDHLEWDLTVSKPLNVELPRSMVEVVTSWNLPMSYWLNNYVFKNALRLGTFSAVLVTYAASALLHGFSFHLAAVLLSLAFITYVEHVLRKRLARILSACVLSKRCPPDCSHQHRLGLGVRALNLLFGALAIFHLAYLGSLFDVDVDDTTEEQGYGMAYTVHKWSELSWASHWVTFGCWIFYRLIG

Wnt signaling = conditions: TM3 cells; read-out: IC50, inhibition of Wnt signaling; cited from earlier work
Smo = Smo (Homo sapiens, UniProt Q99835); conditions: read-out: KD, Smo heptahelical domain; cited from earlier work
Sequence of Smo (Q99835 28-787): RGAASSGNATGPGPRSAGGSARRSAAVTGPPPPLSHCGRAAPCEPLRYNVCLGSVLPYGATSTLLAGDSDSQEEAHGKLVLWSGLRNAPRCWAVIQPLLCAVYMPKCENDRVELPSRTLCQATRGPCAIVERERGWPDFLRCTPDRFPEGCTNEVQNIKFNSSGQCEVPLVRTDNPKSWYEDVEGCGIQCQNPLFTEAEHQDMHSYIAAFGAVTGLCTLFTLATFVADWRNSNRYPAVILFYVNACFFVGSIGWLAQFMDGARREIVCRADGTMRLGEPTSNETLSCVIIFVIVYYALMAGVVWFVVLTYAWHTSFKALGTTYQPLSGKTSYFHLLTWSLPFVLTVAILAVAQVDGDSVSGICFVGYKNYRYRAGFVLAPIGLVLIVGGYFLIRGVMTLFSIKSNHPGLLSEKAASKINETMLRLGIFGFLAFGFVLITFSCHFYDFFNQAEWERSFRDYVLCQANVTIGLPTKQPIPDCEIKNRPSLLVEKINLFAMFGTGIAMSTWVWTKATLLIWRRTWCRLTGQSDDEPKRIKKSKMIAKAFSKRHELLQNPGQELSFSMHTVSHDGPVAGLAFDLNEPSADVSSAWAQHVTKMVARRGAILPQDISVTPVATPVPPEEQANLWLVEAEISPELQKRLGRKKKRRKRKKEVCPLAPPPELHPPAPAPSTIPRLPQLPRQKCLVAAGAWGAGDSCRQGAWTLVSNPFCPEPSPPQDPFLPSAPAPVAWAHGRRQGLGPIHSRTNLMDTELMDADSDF

TNKS2 = target: T2, TNKS2 (Homo sapiens, UniProt Q9H2K2); conditions: cited from earlier work
T2 sequence (Q9H2K2 1-1166): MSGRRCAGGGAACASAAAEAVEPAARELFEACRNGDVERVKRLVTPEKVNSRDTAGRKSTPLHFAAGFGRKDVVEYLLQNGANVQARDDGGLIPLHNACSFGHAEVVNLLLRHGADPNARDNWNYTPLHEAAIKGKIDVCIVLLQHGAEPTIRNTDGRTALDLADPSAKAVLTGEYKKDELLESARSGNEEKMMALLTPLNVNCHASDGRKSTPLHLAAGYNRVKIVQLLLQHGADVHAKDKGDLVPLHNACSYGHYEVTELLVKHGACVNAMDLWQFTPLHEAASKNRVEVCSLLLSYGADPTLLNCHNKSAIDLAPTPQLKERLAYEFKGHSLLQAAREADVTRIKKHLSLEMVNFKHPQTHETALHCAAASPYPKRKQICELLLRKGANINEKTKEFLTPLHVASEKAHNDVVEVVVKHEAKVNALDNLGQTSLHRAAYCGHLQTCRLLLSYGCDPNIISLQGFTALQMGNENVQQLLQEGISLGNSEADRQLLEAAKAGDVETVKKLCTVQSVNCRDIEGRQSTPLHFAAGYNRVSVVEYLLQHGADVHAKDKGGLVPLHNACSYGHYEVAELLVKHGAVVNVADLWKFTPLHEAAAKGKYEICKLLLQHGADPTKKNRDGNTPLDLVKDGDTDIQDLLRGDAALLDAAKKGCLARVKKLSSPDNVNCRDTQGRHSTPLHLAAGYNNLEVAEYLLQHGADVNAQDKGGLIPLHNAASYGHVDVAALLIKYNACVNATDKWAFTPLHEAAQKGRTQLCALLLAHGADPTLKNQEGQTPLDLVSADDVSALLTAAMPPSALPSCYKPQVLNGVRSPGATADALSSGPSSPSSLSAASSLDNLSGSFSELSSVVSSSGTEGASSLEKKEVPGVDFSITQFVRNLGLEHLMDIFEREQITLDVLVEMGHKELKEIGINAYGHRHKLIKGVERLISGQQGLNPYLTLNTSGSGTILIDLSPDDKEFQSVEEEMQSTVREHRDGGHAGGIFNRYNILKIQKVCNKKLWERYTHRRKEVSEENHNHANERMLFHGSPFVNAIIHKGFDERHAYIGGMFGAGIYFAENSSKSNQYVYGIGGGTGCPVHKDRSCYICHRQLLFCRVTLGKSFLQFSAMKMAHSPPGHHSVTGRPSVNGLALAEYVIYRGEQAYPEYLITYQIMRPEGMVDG

[4] = target: Wnt3A-mediated activation of a multimerized TCF-binding site driving luciferase; conditions: HEK293 cells; cited from earlier work
hSS [5] = assay: Characterization of hSS differentiation conditions (RT-qPCR, immunostaining); conditions: AlloP with or without RA (hSS-ISA, hSS-ISRA)
Method: For the generation of hSS, the medium was supplemented with additional small molecules during the first 23 days in culture; a schematic showing the recipes is presented in FIG. 8a). […] IWP-2 (5 μM; Selleckchem) from day 4 until day 24, and the SHH pathway agonist SAG (smoothened agonist; 100 nM; Selleckchem) from day 12 to day 24. The hSS-ISA condition also included IWP2 and SAG with the addition of allopregnanolone (AlloP 100 nM; Cayman Chemicals) from day 15 to day 23, while the hSS-ISRA condition included AlloP (100 nM) from day 15-23, and a brief exposure (day 12-15) to retinoic acid (RA 100 nM; Sigma). From day 25 to 42, the NM for both the hCS and hSS conditions, was supplemented with the growth factors BDNF (20 ng/ml; Peprotech) and NT3 (20 ng/ml; Peprotech) with medium changes every other day. From day 43 onwards, hCS and hSS were maintained in unsupplemented NM with medium changes every four to six days.
Immunohistochemistry. Cryosections were washed with PBS to remove excess OCT and blocked in 10% goat serum (NGS), 0.3% Triton X-100 diluted in PBS for 1 hr at room temperature. […]
Real time quantitative PCR (qPCR). mRNA was isolated using the RNeasy Mini Kit and RNase-Free DNase set (Qiagen), and template cDNA was prepared by reverse transcription using the SuperScript III First-Strand Synthesis SuperMix for qRT-PCR (Life Technologies). […]

hSS [6] = assay: Fluo-4 calcium imaging in intact hSS; conditions: 7 days AlloP 100 nM combined with 3-day retinoic acid 100 nM (hSS-ISRA); ~day 50; P=0.006
Method: The generation of hCS from hiPSC was performed as previously described. […] For the generation of hSS, the medium was supplemented with additional small molecules during the first 23 days in culture; a schematic showing the recipes is presented in FIG. 8a). […] IWP-2 (5 μM; Selleckchem) from day 4 until day 24, and the SHH pathway agonist SAG (smoothened agonist; 100 nM; Selleckchem) from day 12 to day 24. The hSS-ISA condition also included IWP2 and SAG with the addition of allopregnanolone (AlloP 100 nM; Cayman Chemicals) from day 15 to day 23, while the hSS-ISRA condition included AlloP (100 nM) from day 15-23, and a brief exposure (day 12-15) to retinoic acid (RA 100 nM; Sigma). From day 25 to 42, the NM for both the hCS and hSS conditions, was supplemented with the growth factors BDNF (20 ng/ml; Peprotech) and NT3 (20 ng/ml; Peprotech) with medium changes every other day. From day 43 onwards, hCS and hSS were maintained in unsupplemented NM with medium changes every four to six days.
Fluo-4 calcium imaging in intact hSS. […] Spontaneous calcium activity was recorded for 10 min (one frame every 8-10 s) in one 10 μm z-stack plane. Fluorescence intensity (F) was exported as mean gray values in ImageJ. Signal decay was controlled by subtracting the mean fluorescence of the background (Fb). […]

neurons in hSS = conditions: 10 μM; 250 μm sections of hSS
Method: (§1) Electrophysiology. […] Slicing was performed using a Leica VT1200 vibratome. Immediately after sectioning, slices were moved to a circulation chamber containing ACSF at 32° C.
(§2) For patch-clamp recording, cells were identified by the presence of a fluorescent reporter using an upright Axoscop II microscope (Zeiss). […] Cl− reversal was calculated to be at −91 mV according to the Nernst equation. […] The Cl− reversal potential was calculated to be 0 mV according to the Nernst equation. IPSCs were blocked by application of the GABAA receptor antagonist gabazine (10 μM, Abcam), which was added to superfused ACSF. EPSCs were blocked by application of the glutamate receptor antagonist kynurenic acid (1 mM, Abcam), which was added to superfused ACSF. Electrical simulation was delivered using a bipolar tungsten electrode (FHS) placed […] away from a recorded neuron. Stimulations were delivered to slices for 0.1 ms at […] and separated by at least 10 s. Inward EPSCs and outward IPSPs were recorded by filling the patch pipette with a low chloride internal solution (ECI−=−90 mV) and holding the cell at −40 mV, which is the midpoint between ECI− and EK+/Na+. […] Recordings were filtered at 10 kHz. Synaptic recordings were analyzed using custom software developed by J. R. H. (Wdetecta).

[7] = system: Dlxi1/2b::eGFP cells that migrated into hCS; conditions: 10 μM; fused hSS-hCS slices
Method: as §1, §2

hCS neurons = assay: Patch clamp recording of EPSCs in sliced hCS; format: cell-based, human; conditions: 1 mM, added to superfused ACSF
Method: Electrophysiology. […] Slicing was performed using a Leica VT1200 vibratome. […] Recordings were filtered at 10 kHz. […] Action potentials were analyzed using custom MATLAB (MathWorks) programs.

[8] = system: TS Dlxi1/2b::eGFP+ cells in fused hSS-hCS; assay: Live imaging of interneuron migration in fused hSS-hCS from Timothy syndrome; format: cell-based, human; conditions: 15 μM, P<0.001
Method: Live imaging and analysis of Dlxi1/2b::eGFP+ cell migration. The migration of Dlxi1/2b::eGFP+ cells was imaged for 8-12 hrs under environmentally controlled conditions (37° C., 5% CO2) in intact, fused hSS-hCS using a confocal microscope with a motorized stage (Leica SP8). Fused hSS-hCS were transferred to a well of a 96-well plate (glass-bottom plates, Corning) in 200 μl of NM. Spheroids were incubated in the environmentally controlled chamber for 30-60 min prior to imaging. During a given recording session, up to 8 fused hSS-hCS were imaged at a depth of 50-150 μm depth and a rate of 15-20 min/frame. For pharmacological manipulation, cells were imaged for 12 hrs to record a baseline. […] The field of view was readjusted to capture the previous region of interest and cells in fused hSS-hCS were imaged for an additional 12 hrs. […] For quantification of migration of Dlxi1/2b::eGFP+ cells after plating on coverslips, intact hSS were plated on Poly-ornithine/laminin (Sigma) coated glass coverslips (15 mm; Werner). […] To estimate the length of individual saltations, Dlxi1/2b::eGFP cells displaying a swelling of the soma were identified, and distance (in μm) to the new position of the soma following nucleokinesis was recorded manually. […] Path directness was calculated as the E/A ratio. […]

With `c1cc(CN2CCCNCCNCCCNCC2)ccc1CN1CCCNCCNCCCNCC1` [AMD3100] the saltation length ([1]; P=0.006) was “significant reduction”, the speed when mobile ([1]; P=0.006) was “significant reduction” and the path directness ([1]; P=0.02) was “change”. For the same molecule, the frequency of saltations ([1]; P=0.03) was “significant reduction”.

For `O=C1[C@H](Cc2ccc(O)cc2)N2C(=O)CCN(C(=O)NCc3ccccc3)[C@H]2CN1Cc1cccc2ccccc12` [ICG-001], the IC50 [2] is listed as 3000 nM.

In the case of `Cc1ccc2nc(NC(=O)CSc3nc4c(c(=O)n3-c3ccccc3)SCC4)sc2c1` [IWP-2], the IC50 [3] is given as 27 nM.

In the case of `O=C(CSc1nc2c(c(=O)n1-c1ccccc1)SCC2)Nc1ccc(-c2ccccc2)cn1` [IWP-L6], the EC50 (Porcn) is given as 0.5 nM.

For `Cc1cc(-c2ncc(CC(=O)Nc3ccc(-c4cnccn4)cn3)cc2C)ccn1` [LGK-974], the IC50 (Wnt signaling) is given as 0.4 nM.

For `CNC1CCC(N(Cc2cccc(-c3ccncc3)c2)C(=O)c2sc3ccccc3c2Cl)CC1` (centres unmarked) [SAG], the Kd (Smo) is given as 59 nM.

For `COc1ccc(-n2c(SCCCN3C(=O)c4cccc5cccc(c45)C3=O)nnc2-c2ccncc2)cc1` [WIKI4], the IC50 (TNKS2) is listed as 15 nM.

For `Cc1cc(-c2ccc(CC(=O)Nc3ccc(-c4cccnc4)cc3)cc2)ccn1` [Wnt-059], the IC50 [4] is given as 0.074 nM.

For `CC(=O)[C@H]1CC[C@H]2[C@@H]3CC[C@H]4C[C@H](O)CC[C@]4(C)[C@H]3CC[C@]12C` [allopregnanolone], the “subpallial fate, neurotransmitter identity and GABAergic subtypes in hSS” value (hSS [5]) was “did not alter” and the “frequency of spontaneous calcium spikes” value (hSS [6]) was “significantly increased”.

With `COc1ccc(-c2ccc(=N)n(CCCC(=O)O)n2)cc1` [gabazine] the “spontaneous inhibitory postsynaptic responses (sIPSCs)” value (neurons in hSS) was “abolished” and the “evoked disynaptic IPSCs after electrical stimulation” value [7] was “sensitive”.

With `O=C(O)c1cc(=O)c2ccccc2[nH]1` [kynurenic acid] the EPSCs (hCS neurons) was “blocked”.

With `CC[C@H](CO)Nc1nc(NCc2ccccc2)c2ncn(C(C)C)c2n1` [roscovitine] the saltation length [8] was “rescuing”.
